Measured values from ChEMBL document CHEMBL1201862, “PubChem BioAssay data set” (2004).
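A five-concentration, 48-hour dose response in 96-well plates underlies each endpoint, interpolated linearly between surrounding concentrations. At the GI50, growth is halved.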 Calls of active or inactive are those of the source. Rule as the data show it: active = GI50 up to about 1.1 µM and inactive = higher.

Key:
Assay in all cases: NCI tumour cell line growth inhibition, 48 h
LOX IMVI = system: LOX IMVI
SF-268 = system: SF-268
SK-MEL-2 = system: SK-MEL-2
U-251 = system: U-251
SR = system: SR
SK-MEL-28 = system: SK-MEL-28
IGROV-1 = system: IGROV-1
HT-29 = system: HT-29
MDA-MB-231 = system: MDA-MB-231
SF-295 = system: SF-295
A498 = system: A498
HCT-116 = system: HCT-116
M14 = system: M14
HOP-92 = system: HOP-92
NCI-H226 = system: NCI-H226
OVCAR-8 = system: OVCAR-8
SW-620 = system: SW-620
HOP-62 = system: HOP-62
RXF 393 = system: RXF 393

Measured: GI50

N#CC(CC(=O)O)=C(c1ccccc1)c1ccccc1
inactive: LOX IMVI > 100 µM | SF-268 > 100 µM | SK-MEL-2 > 100 µM | U-251 > 100 µM | SR > 100 µM | SK-MEL-28 > 100 µM | IGROV-1 > 100 µM | HT-29 > 100 µM | MDA-MB-231 > 100 µM | SF-295 > 100 µM | A498 > 100 µM | HCT-116 > 100 µM | M14 > 100 µM | HOP-92 > 100 µM | NCI-H226 > 100 µM | OVCAR-8 > 100 µM | SW-620 > 100 µM | HOP-62 > 100 µM

CN(C)CCN(C)P12(Oc3ccccc3O1)Oc1c(Cl)c(Cl)c(Cl)c(Cl)c1O2
inactive: LOX IMVI 63 µM | SF-268 36.1 µM | U-251 56.5 µM | SR 35.2 µM | SK-MEL-28 > 100 µM | IGROV-1 45.4 µM | HT-29 43.8 µM | MDA-MB-231 69.8 µM | SF-295 37.1 µM | A498 60.5 µM | HCT-116 33.2 µM | M14 50.5 µM | HOP-92 22.1 µM | NCI-H226 > 100 µM | OVCAR-8 40.7 µM | SW-620 47.4 µM | HOP-62 45 µM

O=C(O)CCC(NC(=O)c1ccc(CNc2nc3ccccc3nc2C(=O)O)cc1)C(=O)O (stereo not drawn)
inactive: LOX IMVI > 100 µM | SF-268 > 100 µM | SK-MEL-2 > 100 µM | U-251 > 100 µM | SR > 100 µM | SK-MEL-28 > 100 µM | IGROV-1 > 100 µM | HT-29 > 100 µM | MDA-MB-231 > 100 µM | SF-295 > 100 µM | A498 > 100 µM | HCT-116 > 100 µM | M14 > 100 µM | NCI-H226 > 100 µM | OVCAR-8 > 100 µM | SW-620 > 100 µM | HOP-62 > 100 µM

CCCCN(CCCC)CC(O)c1cc(-c2ccc(C(F)(F)F)cc2)nc(-c2ccc(C(F)(F)F)cc2)c1 (stereo not drawn)
inactive: LOX IMVI 35 µM | SF-268 > 100 µM | SK-MEL-2 > 100 µM | U-251 > 100 µM | SR > 100 µM | SK-MEL-28 > 100 µM | IGROV-1 > 100 µM | HT-29 > 100 µM | MDA-MB-231 15.7 µM | SF-295 26.7 µM | A498 > 100 µM | HCT-116 61.8 µM | M14 91.4 µM | HOP-92 61.5 µM | OVCAR-8 > 100 µM | SW-620 > 100 µM | HOP-62 70.8 µM

[N-]=[N+]=Nc1ccccc1-c1ccccc1[N+](=O)[O-]
inactive: LOX IMVI 48.6 µM | SF-268 36.1 µM | SK-MEL-2 27.2 µM | U-251 42.9 µM | SR 28.1 µM | SK-MEL-28 > 100 µM | IGROV-1 > 100 µM | HT-29 44.3 µM | MDA-MB-231 50.2 µM | SF-295 73.3 µM | A498 45 µM | HCT-116 43 µM | M14 50.9 µM | HOP-92 72.1 µM | RXF 393 86.1 µM | OVCAR-8 73.3 µM | SW-620 48.5 µM | HOP-62 87.9 µM

Cc1cc2c(c(C(=O)NCC(=O)N[C@@H](C)C(=O)OCc3ccccc3)c1)Oc1c(cc(C)cc1C(=O)NCC(=O)N[C@@H](C)C(=O)OCc1ccccc1)S2
inactive: SF-268 37.2 µM | SK-MEL-2 24.9 µM | U-251 > 100 µM | SR 17.8 µM | IGROV-1 99.1 µM | HT-29 > 100 µM | MDA-MB-231 34.4 µM | SF-295 > 100 µM | A498 > 100 µM | HCT-116 > 100 µM | M14 > 100 µM | NCI-H226 > 100 µM | RXF 393 20.1 µM | OVCAR-8 > 100 µM | SW-620 > 100 µM | HOP-62 71.3 µM

COc1c(O)c(OC)c2oc(-c3ccc(O)cc3)c(OC)c(=O)c2c1O
inactive: LOX IMVI 30.9 µM | SF-268 8.73 µM | SK-MEL-2 42.5 µM | U-251 23.9 µM | SR 60.1 µM | SK-MEL-28 81.8 µM | IGROV-1 17.8 µM | HT-29 32.4 µM | MDA-MB-231 42.5 µM | SF-295 > 100 µM | A498 30.3 µM | HCT-116 46.3 µM | M14 47.2 µM | NCI-H226 50.9 µM | OVCAR-8 38 µM | SW-620 34.5 µM | HOP-62 24.4 µM

CCn1c(SCC(=O)N/N=C2\SCC(=O)N2c2ccc(C)cc2)nc2ccccc2c1=O
inactive: LOX IMVI 25.2 µM | SF-268 20.3 µM | SK-MEL-2 28.9 µM | U-251 20.7 µM | SR 17.4 µM | SK-MEL-28 20.6 µM | IGROV-1 21.6 µM | HT-29 16.5 µM | MDA-MB-231 20.2 µM | SF-295 18.6 µM | A498 20.8 µM | HCT-116 20 µM | M14 36.1 µM | NCI-H226 23.8 µM | RXF 393 17.4 µM | OVCAR-8 17 µM | SW-620 33.7 µM | HOP-62 21.7 µM

NC1CC(=O)c2sc(I)cc21 (stereo not drawn)
inactive: SF-268 > 100 µM | SK-MEL-2 > 100 µM | U-251 > 100 µM | SR 8.39 µM | SK-MEL-28 > 100 µM | IGROV-1 > 100 µM | HT-29 > 100 µM | MDA-MB-231 > 100 µM | A498 > 100 µM | HCT-116 78.9 µM | M14 > 100 µM | RXF 393 > 100 µM | OVCAR-8 > 100 µM | SW-620 53.6 µM | HOP-62 > 100 µM

O=C1CSC(c2ccc([N+](=O)[O-])cc2)N1c1ccc(-n2c(-c3ccccc3)nc3ccccc3c2=O)cc1 (stereo not drawn)
inactive: LOX IMVI > 100 µM | SF-268 38.5 µM | SK-MEL-2 > 100 µM | U-251 > 100 µM | SR 14.6 µM | SK-MEL-28 > 100 µM | IGROV-1 > 100 µM | HT-29 > 100 µM | MDA-MB-231 70.3 µM | SF-295 > 100 µM | A498 > 100 µM | HCT-116 61.9 µM | M14 > 100 µM | NCI-H226 2.96 µM | OVCAR-8 > 100 µM | SW-620 > 100 µM | HOP-62 > 100 µM

Nc1n[n+]([O-])c2ccc(Cl)cc2[n+]1[O-]
inactive: LOX IMVI 25.1 µM | SF-268 52.1 µM | SK-MEL-2 31.7 µM | U-251 19.8 µM | SR 32.5 µM | SK-MEL-28 23.8 µM | IGROV-1 11.6 µM | HT-29 25.8 µM | MDA-MB-231 32 µM | SF-295 23 µM | A498 26.9 µM | HCT-116 18.5 µM | M14 17.1 µM | NCI-H226 23.1 µM | RXF 393 18.4 µM | OVCAR-8 > 10 µM | SW-620 20.6 µM | HOP-62 11 µM
